# According to patent publication US8337941B2, “Fluorescent substrates for monoamine transporters as optical false neurotransmitters” (The Trustees of Columbia University in the City of New York, priority 2006, dated 2012):
# “Also recorded” adds a separate entry of the source. Where two headings read alike, the source gives them in different places.
# Key:
# [1] = test system: DA terminals; assay: labeling and destaining of DA terminals in live striatal acute slice; assay type: cell-based, mouse
# Text: Distribution of FFN 511 was compared to DA neurons using striatal slices prepared from a transgenic mouse expressing GFP under the control of tyrosine hydroxylase (TH) promoter (36).
# As FFN 511 was applied in a “pulse-chase” pattern, with the extracellular probe washed out following accumulation in the terminals, these experiments essentially measure the amount of DA remaining in the terminal and the released transmitter. The probability of release from a given terminal under a particular stimulus condition is simply the fractional destaining, i.e., Pterminal=Ft/(Ft0−Fbkgnd) Pterminal=1−(Ft−Fbkg)/(Ft0−Fbkg),
# where Ft0 is the initial fluorescent intensity and Fbkgnd is the label remaining after maximal stimulus is applied.
# [2] = photophysical characterization (fluorescence spectra); assay type: physicochemical; details: for pH dependency of fluorescence: spectra at pH 2, 5, 7.4, 9 and 12; for λem / λex: 100 mM sodium phosphate pH 7.4, 10 uM probe
# Description: All spectra were recorded in 100 mM sodium phosphate (pH 7.4) unless otherwise indicated. Recorded λmax is that of the longest wavelength transition. Extinction coefficients were reported as the average of at least three independent preparations of the probes. Fluorescence measurements were taken on a Jobin Yvon Fluorolog fluorescence spectrofluorometer in 100 mM sodium phosphate pH 7.4 at a concentration of 10 uM in probe, excited at their respective λmax.
# [3] = test system: chromaffin cells; assay: probe uptake and labeling in chromaffin cells by fluorescence microscopy; assay type: cell-based, mouse
# Text: Chromaffin cells are an excellent model system as the cytoplasm of these cells in culture is almost completely filled with large dense core vesicles that accumulate catecholamines by VMAT.
# If necessary, metabolism of the probes by MAO (present in mitochondria) may be reduced by the addition of a suitable inhibitor (deprenyl for MAO B, clorgyline for MAO A) or by simply methylating the α-position of the amine (10, 14).
# Catecholamines are stored in chromaffin large dense core vesicles (LDCVs), which contain vesicular monoamine transporter 1 (VMAT1). Although VMAT 1 and 2 are distinct proteins, they share many functional characteristics.
# [4] = test system: chromaffin cells; assay: TIRF assay of stimulation-dependent exocytosis from FFN 511-loaded chromaffin granules; assay type: cell-based, mouse; details: single LDCV
# Text: Total internal reflectance fluorescence microscopy (TIRF) was used as a functional assay for the ability of FFN 511-loaded chromaffin granules to undergo stimulation-dependent exocytosis. TIRF allows for fluorescence excitation in a narrow −100 nm thick layer of the cell immediately adjacent to the surface.
# [5] = test system: evoked DA release; assay: evoked DA release in slice measured by cyclic voltammetry; assay type: cell-based, mouse
# Text: FFN 511 was destained by neuronal stimulation in a calcium-dependent manner under conditions identical to those that release DA as measured by simultaneous cyclic voltammetry. (FFN 511 is not oxidized and not measured by cyclic voltammetry).
# [6] = target: T1, VMAT2 (Homo sapiens, UniProt Q05940); assay: in vitro competitive binding assay, membranes from HEK cells stably transfected with VMAT2; details: inhibition of binding to membranes from HEK cells stably transfected with VMAT2; read-out: apparent IC50
# T1 construct: expressed in transfected cells; host or cells: HEK cells, stably transfected; membranes
# T1 sequence (Q05940 whole entry, species assumed): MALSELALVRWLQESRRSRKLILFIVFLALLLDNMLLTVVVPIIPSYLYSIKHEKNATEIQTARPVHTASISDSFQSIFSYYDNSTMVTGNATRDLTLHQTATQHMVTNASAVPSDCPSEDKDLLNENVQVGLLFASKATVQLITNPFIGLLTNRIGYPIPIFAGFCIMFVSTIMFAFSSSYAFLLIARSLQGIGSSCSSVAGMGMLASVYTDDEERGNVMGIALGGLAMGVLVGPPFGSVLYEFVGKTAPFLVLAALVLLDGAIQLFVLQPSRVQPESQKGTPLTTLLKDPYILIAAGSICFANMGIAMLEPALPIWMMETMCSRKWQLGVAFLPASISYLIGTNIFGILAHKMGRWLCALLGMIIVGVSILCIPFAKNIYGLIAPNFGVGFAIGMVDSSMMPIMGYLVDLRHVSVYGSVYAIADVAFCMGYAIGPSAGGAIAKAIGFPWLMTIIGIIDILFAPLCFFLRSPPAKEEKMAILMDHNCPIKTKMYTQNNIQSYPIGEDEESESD
# Text: On the basis of initial encouraging results, compound FFN 511 was submitted to rigorous investigation, from which it emerged as a promising imaging probe. Catecholamines are stored in chromaffin large dense core vesicles (LDCVs), which contain vesicular monoamine transporter 1 (VMAT1). Although VMAT 1 and 2 are distinct proteins, they share many functional characteristics.
# [7] = 4 Hz stimulation, in the presence of calcium
structure (smiles),measurement,setting,value
"NCCc1cc(=O)oc2c3c4c(cc12)CCCN4CCC3 [Probe 511, 8-(2-Amino-ethyl)-2,3,5,6-tetrahydro-1H,4H-11-oxa-3a-aza-benzo[de]anthracen-10-one]",number of action potentials to release about 50% of the terminal content,[1]; [7],640 action potentials
same,time to release about 50% of the terminal content,[1]; [7],~160 s
same,fluorescent labeling in corpus callosum,"[1]; acute slices, mouse CNS",no labeling
same,fluorescent labeling in cortex,"[1]; acute slices, mouse CNS",fainter fluorescence with patchy distribution
same,fluorescent labeling in striatum,"[1]; acute slices, mouse CNS",clearly observed in presynaptic terminals
same,FFN 511 labeling after unilateral 6-OHDA lesion of DA neurons,"[1]; injected hemisphere, slices 21 days post-lesion",nearly completely abolished
same,calcium dependence of stimulated destaining,[1]; neuronal stimulation,completely dependent on the presence of calcium
same,emission maximum,[2]; compared with GFP,~500 nm
same,pH dependency of fluorescence,[2],increased fluorescence seen at alkaline pH values
same,labeling of chromaffin cells,[3],selectively label healthy chromaffin cells
same,duration of linear increase of intracellular probe concentration (fluorescence),[3]; 500 nM in physiological saline solution,at least 60 minutes
same,uptake into chromaffin vesicles,[3]; At 50 nM,actively taken up into chromaffin vesicles
same,time window in which uptake is linear,"[3]; FFN 511 500 nM, single chromaffin cells",10 to 60 min
same,accumulation in acidic compartments of the cells,[3]; abolished by chloroquine exposure,accumulates in acidic compartments
same,fluorescence after addition of lipophilic weak base chloroquine,[3]; chloroquine 100 μM,completely abolished
same,staining of cell nuclei,[3]; chromaffin cells,nuclear exclusion
same,effect of VMAT inhibitor tetrabenazine on probe uptake,"[3]; chromaffin cells, TBZ 10 uM (FIG. 20), p=0.001 vs control",abolished by Tetrabenazine; also recorded: inhibited by tetrabenazene
same,release from LDCVs on high potassium stimulation,[4],released by exocytosis
same,effect on evoked DA release at higher concentrations,[5],reduced evoked DA release
same,effect on evoked DA release at levels sufficient to label the terminals,[5],did not alter evoked DA release
same,IC50,[6],2.5 µM
"O=C(O)C(F)(F)F.O=c1cc(O)c2ccc(N3CCNCC3)cc2o1 [Probe 484, 4-(4—Hydroxy-coumarin-7-yl)-piperazin-1-ium trifluoroacetate]",λem,[2],385 nm
same,λex,[2],319 nm
same,pH dependency of fluorescence,[2]; trifluoroacetate,possess pH-dependency; also recorded: shift in fluorescence emission maxima seen with changing pH
"COC(=O)[C@H]1[C@H]2C[C@@H]3c4[nH]c5cc(OC)ccc5c4CCN3C[C@H]2C[C@@H](OC(=O)c2cc(OC)c(OC)c(OC)c2)[C@@H]1OC [reserpine, reference compound]",inhibition of 511 labeling by VMAT2 inhibitors,[1],strongly inhibited
"CN(C)c1ccc2cc3ccc(N(C)C)cc3nc2c1 [acridine orange, reference compound]",behaviour of fluorescence in water / aqueous buffer solution,[2],drops in water
"NCCNc1ccc2ccc(=O)oc2c1 [Probe 505, 7-(2-Amino-ethylamino)-coumarin]",λem,[2],455 nm
same,λex,[2],361 nm
"NCCc1ccc(O)c(O)c1 [DA, dopamine, reference compound]",IC50,[6],~1 µM
"CC(N)Cc1ccccc1 (stereo not shown) [amphetamine, reference compound]",loss of 511 fluorescence,"[1]; 10 μM, 10 min, striatal slice",~50%
"CCN(CC)c1ccc2c(C)cc(=O)oc2c1 [Coumarin 1, reference compound]",behaviour of fluorescence in water / aqueous buffer solution,[2],drops in water
same,λem,[2],470 nm
same,λex,[2],384 nm
"COc1cc2c(cc1OC)C1CC(=O)C(CC(C)C)CN1CC2 (stereo not shown) [tetrabenazine, reference compound]",inhibition of 511 labeling by VMAT2 inhibitors,"[1]; striatal slice, reserpine 10 μM, 2 hours (FIG. 36B)",strongly inhibited
